According to patent EP2987533B1, “7-substituted piperazin-1-yl fluoroquinolone compounds, their use in the treatment of cancer, pharmaceutical compositions and a method for preparation” (priority 2014, dated 2016):

System: 60 human tumor cell line panel
Assay: NCI 60 cell line one-dose SRB primary anticancer assay
Assay type: cell-based
Conditions: 60 cell lines assay in one dose, 10µM (title; head prints 10.0 mM), 48 h; for inhibition at 10 µM: Homo sapiens, read-out: MGI % (Mean growth inhibition percentage)
Protocol: A primary anticancer assay was performed for an approximately 60 human tumor cell line panel derived from nine neoplastic diseases, in accordance with the protocol of the Drug Evaluation Branch, National Cancer Institute, Bethesda, MD (Monks A. et al., J. Natl. Cancer Inst 1991, 83, 757-766; Boyd M.R. and Paull K.D., Drug. Dev. Res. 1995, 34, 91-109; Shoemaker R.H., Nat. Rev. Cancer 2006, 6, 813-823). Briefly, tested compounds were added to the culture at a single concentration (10^-5M), and the cultures were incubated for 48 h. End point determinations were made with a protein binding dye, sulforhodamine B (SRB). The results for each tested compound were reported as the growth percentage of the treated cells when compared to that of the untreated control cells. The percentage growth was evaluated spectrophotometrically versus controls not treated with test agents.

| Structure (SMILES) | Most sensitive cell lines | PCE (Positive cytotoxic effect: ratio between number of cell lines with percentage growth inhibition from 10 to >100 and total number of cell lines) | RGI % (Range of growth inhibition percentage) [%] | inhibition at 10 µM [%] |
| --- | --- | --- | --- | --- |
| O=C(O)c1cn(C2CC2)c2cc(N3CCNCC3)c(F)cc2c1=O [Ciprofloxacin (b), Ciprofloxacin, reference compound] | Renal Cancer (UO-31, A498) | 2/57 | 28.85 to 13.76 | -1.41 |
| O=C(O)c1cn(C2CC2)c2cc(N3CCN(S(=O)(=O)c4ccc(Cl)cc4)CC3)c(F)cc2c1=O [Compound 1b] | Melanoma (LOX IMVI, M14), Renal Cancer (A498, CAKI-1, UO-31), Prostate Cancer (PC-3), Breast Cancer (T-47D) | 7/53 | 59.75 to 10.12 | 3.5 |
| CCn1cc(C(=O)O)c(=O)c2cc(F)c(N3CCN(S(=O)(=O)c4ccc(OC)c(OC)c4)CC3)cc21 [Compound 4a] | Leukemia (MOLT-4, SR), CNS Cancer (SF-268, SNB-75) Melanoma (LOX IMVI, M14), Renal Cancer (UO-31), Prostate Cancer (PC-3), Breast Cancer (T-47D) | 9/58 | – | 2.33 |
| COc1ccc(S(=O)(=O)N2CCN(c3cc4c(cc3F)c(=O)c(C(=O)O)cn4C3CC3)CC2)cc1OC [Compound 4b] | NSC Lung Cancer (HOP-62, HOP-92), CNS Cancer (SNB-75), Melanoma (LOX IMVI), Renal Cancer (UO-31), Breast Cancer (T-47D) | 6/58 | 35.09 to 10.43 | 1.84 |
| COc1ccc(S(=O)(=O)N2CCN(c3cc4c(cc3F)c(=O)c(C(=O)O)cn4C3CC3)CC2)c(OC)c1 [Compound 5b] | Leukemia (CCRF-CEM, HL-60(TB), K-562, MOLT-4, PRMI-8226, SR), NSC Lung Cancer (HOP-62, NCI-H226), CNS Cancer (SF-268, SF-539, SNB-19, SNB-75), Melanoma (LOX IMVI, SK-MEL-5, UACC-62), Renal Cancer (A498, UO-31), Breast Cancer (T-47D, MDA-MB-468) | 19/58 | 46.83 to 10.48 | 7.33 |
| O=C(O)c1cn(C2CC2)c2cc(N3CCN(CCN4CCOCC4)CC3)c(F)cc2c1=O [Compound 8b] | NSC Lung Cancer (HOP-92, NCI-H522), Melanoma ( MALME-3M), Renal Cancer (UO-31), Prostate Cancer (PC-3) | 5/57 | 24.51 to 10.05 | -2.2 |
| O=C(O)c1cn(C2CC2)c2cc(N3CCN(CCN4C(=O)c5ccccc5C4=O)CC3)c(F)cc2c1=O [Compound 9b] | CNS Cancer (SNB-75), Renal Cancer (UO-31), Breast Cancer (MCF7) | 3/58 | 36.83 to 13.18 | -2.69 |
| O=C(O)c1cn(C2CC2)c2cc(N3CCN(CCCN4C(=O)c5ccccc5C4=O)CC3)c(F)cc2c1=O [Compound 10b] | Leukemia (CCRF-CEM, PRMI-8226), Renal Cancer (UO-31) | 3/57 | 38.76 to 13.64 | -4.16 |
